pIC50: −log10 of the molar value. Where “and” joins values, the source holds several entries; their conditions need not be identical. Equal entries are not always repeated.
Assays:
[1] = molecular target: T1, P2X7 (Homo sapiens (Human), UniProt Q99572); test: P2X7 antagonism in human peripheral blood mononuclear cells (PBMCs), IL-1β release (LPS + Bz-ATP, ELISA); format: cell-based; conditions: P2X7, 10 μM test compound, LPS 30 ng/ml + Bz-ATP 0.5 mM, read-out: PBMC @10 μM (% control)
Experimental: (§1) P2X7 Antagonism in Human Peripheral Blood Mononuclear Cells (PBMCs) and Human Whole Blood.
(§2) Human blood was collected using a blood donor program. PBMCs were isolated from blood using a Ficoll density gradient technique. Briefly, blood was laid on Ficoll solution and centrifuged at ROOM TEMPERATURE for 20 minutes at 2000 rpm. The buffy layer (between red blood cells and plasma) was carefully collected by aspiration, washed with PBS and centrifuged again at 1500 rpm for 15 minutes. The resulting cell pellet was washed and plated on 96 well-plates for experiments. For the Human Whole Blood experiments, 150 μl of human blood was plated on 96 well-plates. Lipopolysaccharide (LPS) (30 ng/ml) was added to each well and incubated for 1 hour. Test compounds were then added and incubated for 30 minutes. The P2X7 agonist, 2′(3′)-O-(4-benzoylbenzoyl) adenosine 5′-triphosphate (Bz-ATP) was then added at a final concentration of 0.5 mM (PBMC) or 1 mM (blood). Cells were incubated for an additional 1.5 hours. At that point, supernatant was collected and stored for IL-1β assay using manufacturer's protocol for enzyme-linked immunosorbant assay (ELISA). Data was expressed as percent control, where control is defined as the difference in IL-1β release in LPS+Bz-ATP samples and LPS only samples. Data was plotted as response (% control) versus concentration to generate IC50 values. […] Data are analyzed and graphed on Graphpad Prism 5. For analysis, each concentration point is averaged from triplicate values and the averaged values are plotted on Graphpad Prism. The IC50 for each compound is then uploaded into 3DX.

[2] = molecular target: rat P2X7 (Rattus norvegicus (Rat), UniProt Q64663); test: P2X7 antagonism in recombinant rat P2X7 cells (column headed P2X7 Rat IC50); format: binding
Experimental: The in vitro affinity of the compounds of the invention for the rat and human P2X7 receptor was determined using a human peripheral blood mononuclear cells (PBMCs), a human whole blood assay, a Ca^2+ flux and radioligand binding assay in recombinant human P2X7 cells and recombinant rat P2X7 cells. […] The data represented in Tables 2 may represent a value from a single determination or when the experiment was run more than once, the data represents the average from between 2-12 runs.
P2X7 Antagonism in Recombinant Human P2X7 Cells or Recombinant Rat P2X7 Cells: […]

[3] = molecular target: T1, P2X7; test: P2X7 antagonism in human whole blood, IL-1β release (LPS + Bz-ATP, ELISA); format: cell-based; conditions: Human Whole Blood IC50 (μM), LPS 30 ng/ml + Bz-ATP 1 mM
Experimental: as §1, §2

Chain of rat P2X7 (Q64663 whole entry): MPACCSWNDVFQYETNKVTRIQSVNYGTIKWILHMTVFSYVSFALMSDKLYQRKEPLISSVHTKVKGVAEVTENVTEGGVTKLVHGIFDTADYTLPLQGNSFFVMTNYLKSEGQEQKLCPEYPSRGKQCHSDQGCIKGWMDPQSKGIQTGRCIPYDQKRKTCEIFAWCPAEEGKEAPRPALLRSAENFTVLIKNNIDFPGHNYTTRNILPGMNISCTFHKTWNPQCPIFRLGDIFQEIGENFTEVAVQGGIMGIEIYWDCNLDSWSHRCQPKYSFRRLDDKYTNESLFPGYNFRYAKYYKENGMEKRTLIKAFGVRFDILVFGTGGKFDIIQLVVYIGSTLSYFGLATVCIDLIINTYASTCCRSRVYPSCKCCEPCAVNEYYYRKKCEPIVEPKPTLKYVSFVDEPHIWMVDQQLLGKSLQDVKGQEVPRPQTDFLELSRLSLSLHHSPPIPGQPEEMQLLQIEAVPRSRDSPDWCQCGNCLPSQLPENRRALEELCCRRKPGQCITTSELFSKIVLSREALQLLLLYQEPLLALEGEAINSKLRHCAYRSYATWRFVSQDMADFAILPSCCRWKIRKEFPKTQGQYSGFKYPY
T1 sequence (Q99572 whole entry): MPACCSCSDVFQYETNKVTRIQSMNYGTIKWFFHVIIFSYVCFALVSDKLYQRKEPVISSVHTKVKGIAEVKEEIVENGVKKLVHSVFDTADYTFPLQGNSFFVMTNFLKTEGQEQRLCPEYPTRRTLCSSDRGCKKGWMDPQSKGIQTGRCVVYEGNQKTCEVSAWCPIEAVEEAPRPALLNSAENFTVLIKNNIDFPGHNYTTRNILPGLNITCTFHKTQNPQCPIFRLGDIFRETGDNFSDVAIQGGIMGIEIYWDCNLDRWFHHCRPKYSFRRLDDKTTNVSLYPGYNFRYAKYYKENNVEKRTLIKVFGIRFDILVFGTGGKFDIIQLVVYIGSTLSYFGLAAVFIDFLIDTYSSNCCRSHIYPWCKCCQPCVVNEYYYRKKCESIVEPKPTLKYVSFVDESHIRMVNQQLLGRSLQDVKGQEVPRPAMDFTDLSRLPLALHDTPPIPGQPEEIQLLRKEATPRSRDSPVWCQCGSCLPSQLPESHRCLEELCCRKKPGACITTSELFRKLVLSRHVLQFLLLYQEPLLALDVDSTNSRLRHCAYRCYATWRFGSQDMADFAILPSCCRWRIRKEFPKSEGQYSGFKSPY

| SMILES | remaining activity at 10 µM [1] [%] | pIC50 [2] | IC50 [3] |
| --- | --- | --- | --- |
| Cc1nc(-c2ccn[nH]2)c2c(n1)C1CCCC(C2)N1C(=O)c1cccc(C(F)(F)F)c1Cl (centres unmarked) [Example 2, (2-chloro-3-(trifluoromethyl)phenyl)(2-methyl-4-(1H-pyrazol-5-yl)-5,6,7,8,9,10-hexahydro-6,10-epiminocycloocta[d]pyrimidin-11-yl)methanone] | 1.1 |  |  |
| Cc1nc(-c2ccn[nH]2)c2c(n1)[C@@H]1CCC[C@H](C2)N1C(=O)c1cccc(C(F)(F)F)c1Cl [Example 3, (2-chloro-3-(trifluoromethyl)phenyl)((6R,10S)-2-methyl-4-(1H-pyrazol-5-yl)-5,6,7,8,9,10-hexahydro-6,10-epiminocycloocta[d]pyrimidin-11-yl)methanone] | 22 | 6.09 |  |
| Cc1nc(-c2ccn[nH]2)c2c(n1)[C@@H]1CCC[C@H](C2)N1C(=O)c1ccc(F)c(Cl)c1Cl [Example 4, (2,3-dichloro-4-fluorophenyl)((6R,10S)-2-methyl-4-(1H-pyrazol-5-yl)-5,6,7,8,9,10-hexahydro-6,10-epiminocycloocta[d]pyrimidin-11-yl)methanone] | 25.4 | 6.02 | 1.36 µM |
| Cc1nc(-c2ccn[nH]2)c2c(n1)[C@@H]1CCC[C@H](C2)N1C(=O)c1ccc(Cl)cc1Cl [Example 5, (2,4-dichlorophenyl)((6R,10S)-2-methyl-4-(1H-pyrazol-5-yl)-5,6,7,8,9,10-hexahydro-6,10-epiminocycloocta[d]pyrimidin-11-yl)methanone] | 76.5 |  | 2 µM |
| Cc1nc(-c2ccn[nH]2)c2c(n1)[C@@H]1CCC[C@H](C2)N1C(=O)c1cccc(C(F)(F)F)c1C [Example 6, (2-methyl-3-(trifluoromethyl)phenyl)((6R,10S)-2-methyl-4-(1H-pyrazol-5-yl)-5,6,7,8,9,10-hexahydro-6,10-epiminocycloocta[d]pyrimidin-11-yl)methanone] | 18.1 | 6.01 | 1.13 µM |
| Cc1nc(-c2ccn[nH]2)c2c(n1)[C@@H]1CCC[C@H](C2)N1C(=O)c1ccnc(C(F)(F)F)c1Cl [Example 7, (3-chloro-2-(trifluoromethyl)pyridin-4-yl)((6R,10S)-2-methyl-4-(1H-pyrazol-5-yl)-5,6,7,8,9,10-hexahydro-6,10-epiminocycloocta[d]pyrimidin-11-yl)methanone] | 20.5 | 6.04 | 2.35 µM |
| Cc1nc(-c2ccn[nH]2)c2c(n1)[C@@H]1CCC[C@H](C2)N1C(=O)c1cccc(C(F)(F)F)c1F [Example 8, (2-fluoro-3-(trifluoromethyl)phenyl)((6R,10S)-2-methyl-4-(1H-pyrazol-5-yl)-5,6,7,8,9,10-hexahydro-6,10-epiminocycloocta[d]pyrimidin-11-yl)methanone] | 31.9 | 6.22 |  |
| Cc1nc(-c2ccc(F)cc2)c2c(n1)[C@@H]1CCC[C@H](C2)N1C(=O)c1ccc(Cl)cc1Cl [Example 15, (2,4-dichlorophenyl)((6R,10S)-4-(4-fluorophenyl)-2-methyl-5,6,7,8,9,10-hexahydro-6,10-epiminocycloocta[d]pyrimidin-11-yl)methanone] |  |  | 5.05 µM and 13.3 µM |
| Cc1nc(-c2ccc(F)cc2)c2c(n1)[C@@H]1CCC[C@H](C2)N1C(=O)c1ccc(F)c(Cl)c1Cl [Example 17, (2,3-dichloro-4-fluorophenyl)((6R,10S)-4-(4-fluorophenyl)-2-methyl-5,6,7,8,9,10-hexahydro-6,10-epiminocycloocta[d]pyrimidin-11-yl)methanone] | 13.3 |  | 2.02 µM |
| Cc1nc(-c2ccc(F)cc2)c2c(n1)[C@@H]1CCC[C@H](C2)N1C(=O)c1ccnc(C(F)(F)F)c1Cl [Example 18, (3-chloro-2-(trifluoromethyl)pyridin-4-yl)((6R,10S)-4-(4-fluorophenyl)-2-methyl-5,6,7,8,9,10-hexahydro-6,10-epiminocycloocta[d]pyrimidin-11-yl)methanone] | 28.9 | < 5.00 |  |
| Cc1nc(-c2ccn[nH]2)c2c(n1)[C@H]1CCC[C@@H](C2)N1C(=O)c1cccc(C(F)(F)F)c1Cl [Example 19, (2-chloro-3-(trifluoromethyl)phenyl)((6S,10R)-2-methyl-4-(1H-pyrazol-5-yl)-5,6,7,8,9,10-hexahydro-6,10-epiminocycloocta[d]pyrimidin-11-yl)methanone] | -3 | 7.91 |  |
| Cc1nc(-c2ccn[nH]2)c2c(n1)[C@H]1CCC[C@@H](C2)N1C(=O)c1cccc(C(F)(F)F)c1F [Example 26, (2-fluoro-3-(trifluoromethyl)phenyl)((6S,10R)-2-methyl-4-(1H-pyrazol-5-yl)-5,6,7,8,9,10-hexahydro-6,10-epiminocycloocta[d]pyrimidin-11-yl)methanone] | -3.8 | 7.38 |  |
| Cc1nc(-c2cnn(C)c2)c2c(n1)[C@H]1CCC[C@@H](C2)N1C(=O)c1cccc(C(F)(F)F)c1Cl [Example 30, (2-chloro-3-(trifluoromethyl)phenyl)((6S,10R)-2-methyl-4-(1-methyl-1H-pyrazol-4-yl)-5,6,7,8,9,10-hexahydro-6,10-epiminocycloocta[d]pyrimidin-11-yl)methanone] | -3.7 | < 5.00 |  |
| Cc1nc(-c2cnn(C)c2)c2c(n1)[C@H]1CCC[C@@H](C2)N1C(=O)c1ccc(F)cc1Cl [Example 36, (2-chloro-4-fluorophenyl)((6S,10R)-2-methyl-4-(1-methyl-1H-pyrazol-4-yl)-5,6,7,8,9,10-hexahydro-6,10-epiminocycloocta[d]pyrimidin-11-yl)methanone] | 73.8 |  |  |
| Cc1nc(-c2cnn(C)c2)c2c(n1)[C@H]1CCC[C@@H](C2)N1C(=O)c1ccc(Cl)cc1Cl [Example 40, (2,4-dichlorophenyl)((6S,10R)-2-methyl-4-(1-methyl-1H-pyrazol-4-yl)-5,6,7,8,9,10-hexahydro-6,10-epiminocycloocta[d]pyrimidin-11-yl)methanone] | 76.2 |  |  |
| Cc1nc(-c2ncccn2)c2c(n1)[C@H]1CCC[C@@H](C2)N1C(=O)c1cccc(C(F)(F)F)c1C [Example 43, (2-methyl-3-(trifluoromethyl)phenyl)((6S,10R)-2-methyl-4-(pyrimidin-2-yl)-5,6,7,8,9,10-hexahydro-6,10-epiminocycloocta[d]pyrimidin-11-yl)methanone] | 15 | 7.38 |  |
| Cc1nc(-c2cnccn2)c2c(n1)[C@H]1CCC[C@@H](C2)N1C(=O)c1cccc(Cl)c1Cl [Example 48, (2,3-dichlorophenyl)((6S,10R)-2-methyl-4-(pyrazin-2-yl)-5,6,7,8,9,10-hexahydro-6,10-epiminocycloocta[d]pyrimidin-11-yl)methanone] | -4.3 | 7.27 |  |
| Cc1nc(-c2cnccn2)c2c(n1)[C@H]1CCC[C@@H](C2)N1C(=O)c1ccnc(C(F)(F)F)c1Cl [Example 49, (3-chloro-2-(trifluoromethyl)pyridin-4-yl)((6S,10R)-2-methyl-4-(pyrazin-2-yl)-5,6,7,8,9,10-hexahydro-6,10-epiminocycloocta[d]pyrimidin-11-yl)methanone] | -1.9 | 6.86 |  |
| Cc1nc(-c2ccc(F)cc2)c2c(n1)[C@H]1CCC[C@@H](C2)N1C(=O)c1ccnc(C(F)(F)F)c1Cl [Example 52, (3-chloro-2-(trifluoromethyl)pyridin-4-yl)((6S,10R)-4-(4-fluorophenyl)-2-methyl-5,6,7,8,9,10-hexahydro-6,10-epiminocycloocta[d]pyrimidin-11-yl)methanone] | -1.2 | 7.09 |  |
| Cc1nc(-c2ccc(F)cc2)c2c(n1)[C@H]1CCC[C@@H](C2)N1C(=O)c1ccc(Cl)c(F)c1Cl [Example 54, (2,4-dichloro-3-fluorophenyl)((6S,10R)-4-(4-fluorophenyl)-2-methyl-5,6,7,8,9,10-hexahydro-6,10-epiminocycloocta[d]pyrimidin-11-yl)methanone] | 9.3 | 6.43 |  |
| Cc1nc(-c2ccccn2)c2c(n1)[C@H]1CCC[C@@H](C2)N1C(=O)c1ccnc(C(F)(F)F)c1Cl [Example 61, (3-chloro-2-(trifluoromethyl)pyridin-4-yl)((6S,10R)-2-methyl-4-(pyridin-2-yl)-5,6,7,8,9,10-hexahydro-6,10-epiminocycloocta[d]pyrimidin-11-yl)methanone] | 0.4 | 7.34 |  |

From US10150766B2, “P2X7 modulators” (Jansssen Pharmaceutica NV, priority 2014, dated 2018)
